# According to patent publication US20150323548A1, “METHODS OF MONITORING THE MODULATION OF THE KINASE ACTIVITY OF FIBROBLAST GROWTH FACTOR RECEPTOR AND USES OF SAID METHODS” (Novartis AG, priority 2008, published 2015):
# Marks after values point to notes of the source that are not given here.
# Columns and labels:
# [1] = system: FGF23; assay: FGF23 ELISA in serum of wistar rats; format: in vivo, rat; settings: 24 h post administration, p<0.01
# Procedure: Data are presented as means of n=6, ±SD.
# Animals. Experiments were performed in female wistar rats furth WF/Ico
# The application volumes were 5 ml/kg.
# Blood samples were drawn sublingually at 24 h post-compound administration. Plasma, as well as serum samples were prepared from each blood sample.
# [2] = system: RT112/lucl xenograft tumors; assay: Anti-tumor activity in RT112/lucl subcutaneous xenograft model in nude mice; format: in vivo, mouse; settings: 14 days; for Regr. (%) / Δ body weight (% ± SEM) / Δ body weight (mean g ± SEM) / Δ tumor volume (mean mm^3 ± SEM): p.o., qd
# Procedure: (§1) Animals. Experiments were performed in female HsdNpa: Athymic Nude-nu mice obtained from Laboratory Animal Services, Novartis Pharma AG, Basel, Switzerland. The animals were kept under OHC conditions in Makrolon type II cages (maximum of 10 animals/cage) with 12 hour dark, 12 hour light conditions (lights on: 6 AM, lights off: 6 PM). The animals were fed food and water ad libitum. Experiments were conducted under license number 1762 and license number 1763 approved by the Basel Cantonal Veterinary Office. All invasive procedures were performed under Forene anesthesia.
# Establishment of RT112/lucl tumor xenograft model in nude mice. The parental RT-112 human urinary bladder transitional cell carcinoma cell line, which expressed high levels of wild type FGFR3, was initially derived from a patient with untreated primary urinary bladder carcinoma (histological grade G2, stage not recorded) in 1973 (Marshall et al., 1977, Masters et al., 1986). The original stock vial of RT112 cells used in this study was obtained from DSMZ ACC #418.
# The cells were cultured in MEM medium supplemented with 10% Fetal Calf Serum, 1% sodium pyruvate and 1% L-glutamine. Cell culture reagents were purchased from BioConcept (Allschwil, Switzerland).
# The parental RT112 cell line was infected with the retroviral expression vector pLNCX2/lucl and pools of G418 resistant cells were established and characterized for luciferase expression. The CMV driven expression of luciferase allows the detection of tumors using Xenogen IVIS™ cameras after injection of D-luciferin.
# For the RT112/lucl model, treatments were initiated when the mean tumor volumes were approx. 180 mm^3 and mice were treated daily for 14 days. Body weights and tumor volumes were recorded twice a week. Tumor volumes were measured with calipers and determined according to the formula length×diameter^2×π/6.
# (§2) Statistical analysis. When applicable, results are presented as mean±SEM. Tumor and body weight data were analyzed by ANOVA with post hoc Dunnett's test for comparison of treatment versus control group. The post hoc Tukey test was used for intra-group comparison. The level of significance of body weight change within a group between the start and the end of the experiment was determined using a paired t-test. Statistical analysis was performed using GraphPad prism 4.02 (GraphPad Software).
# (§3) As a measure of anti-tumor efficacy, the % T/C value is calculated at a certain number of days after treatment start according to: (mean change of tumor volume treated animals/mean change tumor volume control animals)×100. When applicable, % regressions are calculated according to the formula (mean change tumor volume/mean initial tumor volume)×100.
# (§4) Compound formulation and animal treatment. […] Vehicle consisted of PEG300/DSW. The application volumes were 10 ml/kg.
# [3] = system: NIH3T3/FGFR3^S249C subcutaneous tumors; assay: Anti-tumor activity in subcutaneous NIH3T3/FGFR3^S249C tumor homograft model in nude mice; format: in vivo, mouse; settings: p.o., qd, treatment day 8
# Procedure: as §1
# Establishment of NIH3T3/FGFR3^S249C tumor homograft model in nude mice. The NIH3T3/FGFR3^S249C model has been validated and characterized as a subcutaneous murine tumor model for the in vivo profiling of FGFR inhibitors. The parental NIH3T3 cell line was originally derived by immortalization of mouse embryonic fibroblasts. NIH3T3/FGFR3^S249C cells were generated by infection of parental NIH3T3 fibroblasts with a retroviral vector expressing FGFR3 with the activating mutation S249C. Pools of G418 resistant NIH3T3^S249C cells were established and characterized for FGFR3 expression and tyrosine phosphorylation. To generate homografts, 5×10^5 NIH3T3/FGFR3^S249C cells resuspended in PBS were injected subcutaneously in nude mice (0.2 ml/mouse).
# Evaluation of anti-tumor activity. For the NIH3T3/FGFR3^S249C model, treatment was initiated when the average tumor volume reached approximately 100 mm^3. Tumor growth and body weights were monitored at regular intervals. The tumor sizes were measured manually with calipers. Tumor volume was estimated using the formula: (W×L×H×π/6), where width (W), length (L) and height (H) are the three largest diameters.
# as §2, §3, §4
# [4] = system: FGF23; assay: FGF23 ELISA in plasma of nude mice bearing RT112/lucl xenografts; format: in vivo, mouse; settings: 50 or 75 mg/kg/qd p.o., 14 days; two hours post-last dosing
# Procedure: Data are presented as means±SD.
# Tissue processing for ex vive analysis. At the end of the experiments, 2 hours after the last compound administrations, tumor samples and blood were collected.
# Aliquots of 50 mg tumor powder were weighed, placed on ice and immediately resuspended at a ratio of 1:10 (w/v) in ice-chilled lysis buffer (50 mM Tris pH 7.5, 150 mM NaCl, 1 mM EGTA, 5 mM EDTA, 1% Triton, 2 mM NaVanadate, 1 mM PMSF and protease inhibitors cocktail Roche #11873580001). Lysis was allowed to proceed for 30 min on ice, lysates were clarified by centrifugation at 12000×g for 15 min and protein concentration was determined using DC protein assay reagents (Bio Rad #500-0116) and a BSA standard. Blood was collected from the vena cava with a 23 gauge needle into a 1 ml syringe containing 70 μl of a 1000 IU/ml heparin solution. Blood was then stored on ice for 30 min until centrifugation (10,000 g, 5 min) and then the plasma was collected.
# FGF23 ELISA assay. […] Briefly, two specific murine monoclonal antibodies that bind to full-length FGF-23 are used: the first antibody is immobilized onto the microtiter plate well for capture and the second antibody is cojugated to HRP (horseradish peroxidase) for detection. In a first reaction, plasma or serum samples are added onto microtiter wells coated with the anti-FGF23 antibody to allow binding. […]
# [5] = system: FGF23; assay: FGF23 ELISA in plasma of dogs; format: in vivo, dog; settings: plasma 1 hour after last administration
# [6] = Rat mechanistic study: histopathology and tolerability; format: in vivo
compound,measurement,setting,value
CCN(CC)CCCCNc1ncc2cc(-c3cc(OC)cc(OC)c3)c(NC(=O)NC(C)(C)C)nc2n1 [PD173074],serum levels of FGF23 vs vehicle-treated group,[1]; single oral 50 mg/kg,statistically significant increased in serum levels of FGF23
"CCN1CCN(c2ccc(Nc3cc(N(C)C(=O)Nc4c(Cl)c(OC)cc(OC)c4Cl)ncn3)cc2)CC1 [COMPOUND A, 3-(2,6-Dichloro-3,5-dimethoxy-phenyl)-1-{6-[4-(4-ethyl-perpazin-1-yl)-phenylamino]-pyrimidin-4-yl}-1-methyl urea]",serum levels of FGF23 vs vehicle-treated group,[1]; single oral 10 mg/kg,statistically significant increased in serum levels of FGF23
same,Regr. (%),[2]; 50 mg/kg,67%
same,Δ body weight (% ± SEM),[2]; 50 mg/kg,10.8 ± 4.1%
same,Δ body weight (mean g ± SEM),[2]; 50 mg/kg,2.6 ± 1.0 g
same,Δ tumor volume (mean mm^3 ± SEM),[2]; 50 mg/kg,−120 ± 12* mm^3
same,Regr. (%),[2]; 75 mg/kg,74%
same,Δ body weight (% ± SEM),[2]; 75 mg/kg,−4.0 ± 4.5%
same,Δ body weight (mean g ± SEM),[2]; 75 mg/kg,-1.1 ± 1.1 g
same,Δ tumor volume (mean mm^3 ± SEM),[2]; 75 mg/kg,−133 ± 13* mm^3
same,Tolerability of treatments,[2]; 50 and 75 mg/kg per day orally,well tolerated
same,T/C (%),[3]; 10 mg/kg,34%
same,Δ body weight (% ± SEM),[3]; 10 mg/kg,18.0 ± 3.2%
same,Δ body weight (mean g ± SEM),[3]; 10 mg/kg,4.2 ± 0.7 g
same,Δ tumor volume (mean mm^3 ± SEM),[3]; 10 mg/kg,1320 ± 245* mm^3
same,T/C (%),[3]; 30 mg/kg,4%
same,Δ body weight (% ± SEM),[3]; 30 mg/kg,7.0 ± 3.1 %
same,Δ body weight (mean g ± SEM),[3]; 30 mg/kg,1.6 ± 0.7 g
same,Δ tumor volume (mean mm^3 ± SEM),[3]; 30 mg/kg,156 ± 56* mm^3
same,Regr. (%),[3]; 50 mg/kg,40%
same,Δ body weight (% ± SEM),[3]; 50 mg/kg,4.6 ± 2.2 %
same,Δ body weight (mean g ± SEM),[3]; 50 mg/kg,1.1 ± 0.5 g
same,Δ tumor volume (mean mm^3 ± SEM),[3]; 50 mg/kg,−43 ± 28* mm^3
same,Plasma levels of FGF23 vs vehicle-treated group,[4],increased plasma levels of FGF23
same,FGF-23 cont.,"[5]; group 2, 3 → 100 mg/kg/day p.o., animal # 453 (male)",262.5 pg/mL
same,FGF-23 cont.,"[5]; group 2, 3 → 100 mg/kg/day p.o., animal # 454 (female)",211.3 pg/mL
same,FGF-23 cont.,"[5]; group 3, 30 mg/kg/day p.o., 15 days, animal # 455 (male)",534.3 pg/mL
same,FGF-23 cont.,"[5]; group 3, 30 mg/kg/day p.o., 15 days, animal # 456 (female)",322.7 pg/mL
same,FGF-23 cont.,"[5]; group 4, 300 mg/kg/day p.o., 8 days, animal # 457 (male)",824.6 pg/mL
same,FGF-23 cont.,"[5]; group 4, 300 mg/kg/day p.o., 8 days, animal # 458 (female)",614.8 pg/mL
same,Bone remodeling events (histopathology),"[6]; 10 mg/kg/day 15 days + 4 days recovery, 20 mg/kg/day 3 days + 4 days recovery, 20 mg/kg/day 6 days",Signs of bone remodeling events were noted
same,Soft tissue/vascular mineralization (histopathology),[6]; 10 mg/kg/qd groups,not observed
same,Body weight effect leading to premature termination,"[6]; 20 mg/kg once daily p.o., after the 6th administration",severe body weight loss
same,Soft tissue/vascular mineralization (histopathology),"[6]; 20 mg/kg/day for 3 days after 4 recovery days, and after 6 days of treatment",Soft tissue/vascular mineralization was detected
same,Growth plate thickening (histopathology),"[6]; male rats, 10 and 20 mg/kg/day p.o., after three days of treatment",Growth plate thickening was detected
